Test results reported in paper PMC12988607 (BMC Pharmacology & Toxicology, 2026).
Read-outs that look alike come from different tables or passages of the source.

Key:
[1] = within 3 hours; cited from earlier work
[2] = cited from earlier work
[3] = test system: healthy Chinese volunteers; experiment: Urine PD parameters; assay type: in vivo; conditions: for urine-GLU: 0~4 h after 10 mg EMPA, p < 0.001
[4] = test system: healthy Chinese volunteers; experiment: Blood PD parameters; assay type: in vivo; conditions: p < 0.05; for blood-GLU / insulin: fasting group; for blood-GLU: before EMPA (5.1 ± 0.4) mmol/L; for insulin: before EMPA (7.0 ± 3.7) mU/L
[5] = assay type: in vivo, healthy Chinese volunteers; conditions: for AUC(0-t): AUC0-t; for AUC(0-t) / AUC(0-inf) / Cmax / Tmax: geometric mean; for AUC(0-inf): AUC0-∞; for half-life: t1/2, geometric mean
[6] = test system: healthy Chinese volunteers; experiment: RAAS-related parameters; assay type: in vivo; conditions: for Ang II: after EMPA
[7] = Fed (high-fat diet), single 10 mg EMPA
[8] = human, plasma, oral, 10 mg, Fasting, single 10 mg EMPA
[9] = human, plasma, oral, 10 mg, Fed (high-fat diet), single 10 mg EMPA

OC[C@H]1O[C@@H](c2ccc(Cl)c(Cc3ccc(O[C@H]4CCOC4)cc3)c2)[C@H](O)[C@@H](O)[C@@H]1O [EMPA, empagliflozin]
increase in urinary glucose excretion [1]: 27 times
effect of a high-fat diet (HFD) on Cmax and AUC ([2]; 25 mg and 50 mg EMPA): reduce
bioavailability [2]: poor
time to reach Cmax [2]: 1.33 to 3.0 h
urine-GLU ([3]; fasting group (n = 19), before EMPA (0.3 ± 0.2) mmol/L): 70.9 ± 29.9 mmol/L
β2-MG ([3]; fasting group, urine after EMPA, before EMPA (0.148 ± 0.054) mg/L, p < 0.05): 0.080 ± 0.065 mg/L
α1-MG ([3]; fasting group, urine after EMPA, before EMPA (2.9 ± 1.7) mg/L, p < 0.05): 1.9 ± 1.8 mg/L
α1-MG level, after vs before EMPA ([3]; fed group (EMPA post-meal), urine): did not show a significant difference
urine-GLU ([3]; fed group (n = 23), before EMPA (0.3 ± 0.3) mmol/L): 89.6 ± 35.4 mmol/L
urine-UA ([3]; fed group, after 4 h of EMPA administration, comparison value (2223.8 ± 891.1) mmol/L, p < 0.05): 2751.5 ± 1018.1 mmol/L
β2-MG ([3]; fed group, urine after EMPA, before EMPA (0.145 ± 0.075) mg/L, p < 0.05): 0.094 ± 0.059 mg/L
blood-GLU ([4]; 2 h after EMPA): 4.8 ± 0.3 mmol/L
insulin ([4]; 2 h after EMPA): 5.0 ± 2.2 mU/L
blood-GLU ([4]; 4 h after EMPA): 4.7 ± 0.3 mmol/L
insulin ([4]; 4 h after EMPA): 4.7 ± 3.2 mU/L
BUN ([4]; fed group, 4 h after EMPA, before EMPA (4.4 ± 1.0) mmol/L): 5.5 ± 1.0 mmol/L
SCr ([4]; fed group, 4 h after EMPA, before EMPA (66.0 ± 8.4) mmol/L as printed): 71.5 ± 9.7 µmol/L
eGFR ([4]; fed group, 4 h after EMPA, before EMPA (141.6 ± 22.0)): 128.3 ± 20.7 ml/min/1.73 m^2
blood-UA ([4]; fed group, 4 h after EMPA, comparison value (369.2 ± 62.9) μmol/L): 342.6 ± 57.6 µmol/L
Plasma concentrations Fasting/fed ([5]; 0.5 h after 10 mg EMPA): 3.00
Plasma concentrations Fasting/fed ([5]; 1 h after 10 mg EMPA): 2.27
Plasma concentrations Fasting/fed ([5]; 1.25 h after 10 mg EMPA): 1.92
Plasma concentrations Fasting/fed ([5]; 1.5 h after 10 mg EMPA): 1.71
Plasma concentrations Fasting/fed ([5]; 1.75 h after 10 mg EMPA): 1.68
Plasma concentrations Fasting/fed ([5]; 2 h after 10 mg EMPA): 1.61
Plasma concentrations Fasting/fed ([5]; 2.25 h after 10 mg EMPA): 1.62
Plasma concentrations Fasting/fed ([5]; 2.75 h after 10 mg EMPA): 1.55
Plasma concentrations Fasting/fed ([5]; 3 h after 10 mg EMPA): 1.55
Plasma concentrations Fasting/fed ([5]; 4 h after 10 mg EMPA): 1.40
Plasma concentrations Fasting/fed ([5]; 6 h after 10 mg EMPA): 1.36
Plasma concentrations Fasting/fed ([5]; 8 h after 10 mg EMPA): 1.30
Plasma concentrations Fasting/fed ([5]; 10 h after 10 mg EMPA): 1.24
Plasma concentrations Fasting/fed ([5]; 12 h after 10 mg EMPA): 1.21
Plasma concentrations Fasting/fed ([5]; 24 h after 10 mg EMPA): 1.09
Plasma concentrations Fasting/fed ([5]; 36 h after 10 mg EMPA): 1.09
Plasma concentrations Fasting/fed ([5]; 48 h after 10 mg EMPA): 1.03
AUC_%Extrap, geometric mean ([5]; Fasting, single 10 mg EMPA): 1.80%
AUC_%Extrap, geometric mean [5, 7]: 2.57%
λz, geometric mean [5, 7]: 0.08 h⁻¹
k el ([5]; human, plasma, oral, 10 mg): 2.22e-05 s⁻¹
AUC(0-t) [5, 8]: 1310 ng·h/mL
AUC(0-t) [5, 9]: 951 ng·h/mL
AUC(0-inf) [5, 8]: 1330 ng·h/mL
AUC(0-inf) [5, 9]: 978 ng·h/mL
Cmax [5, 8]: 187 ng/mL
Cmax [5, 9]: 113 ng/mL
concentration at 1 h ([5]; human, plasma, oral, 10 mg, Plasma concentrations, Fasting (n = 56), 1 h after 10 mg EMPA): 166 ± 60.6 ng/mL
concentration at 2 h ([5]; human, plasma, oral, 10 mg, Plasma concentrations, Fasting (n = 56), 2 h after 10 mg EMPA): 152 ± 27.3 ng/mL
concentration at 3 h ([5]; human, plasma, oral, 10 mg, Plasma concentrations, Fasting (n = 56), 3 h after 10 mg EMPA): 123 ± 17.9 ng/mL
concentration at 4 h ([5]; human, plasma, oral, 10 mg, Plasma concentrations, Fasting (n = 56), 4 h after 10 mg EMPA): 104 ± 16.4 ng/mL
concentration at 6 h ([5]; human, plasma, oral, 10 mg, Plasma concentrations, Fasting (n = 56), 6 h after 10 mg EMPA): 72 ± 12.5 ng/mL
concentration at 8 h ([5]; human, plasma, oral, 10 mg, Plasma concentrations, Fasting (n = 56), 8 h after 10 mg EMPA): 52.6 ± 9.1 ng/mL
concentration at 10 h ([5]; human, plasma, oral, 10 mg, Plasma concentrations, Fasting (n = 56), 10 h after 10 mg EMPA): 40.4 ± 8.2 ng/mL
concentration at 12 h ([5]; human, plasma, oral, 10 mg, Plasma concentrations, Fasting (n = 56), 12 h after 10 mg EMPA): 30.7 ± 6.5 ng/mL
concentration at 24 h ([5]; human, plasma, oral, 10 mg, Plasma concentrations, Fasting (n = 56), 24 h after 10 mg EMPA): 10.1 ± 3 ng/mL
concentration at 36 h ([5]; human, plasma, oral, 10 mg, Plasma concentrations, Fasting (n = 56), 36 h after 10 mg EMPA): 3.5 ± 1.4 ng/mL
concentration at 48 h ([5]; human, plasma, oral, 10 mg, Plasma concentrations, Fasting (n = 56), 48 h after 10 mg EMPA): 2.2 ± 0.9 ng/mL
concentration at 0.5 h ([5]; human, plasma, oral, 10 mg, Plasma concentrations, Fed (n = 58), high-fat diet, 0.5 h after 10 mg EMPA): 34.2 ± 31 ng/mL
concentration at 1 h ([5]; human, plasma, oral, 10 mg, Plasma concentrations, Fed (n = 58), high-fat diet, 1 h after 10 mg EMPA): 72.9 ± 49.5 ng/mL
concentration at 1.25 h ([5]; human, plasma, oral, 10 mg, Plasma concentrations, Fed (n = 58), high-fat diet, 1.25 h after 10 mg EMPA): 87.4 ± 39.2 ng/mL
concentration at 1.5 h ([5]; human, plasma, oral, 10 mg, Plasma concentrations, Fed (n = 58), high-fat diet, 1.5 h after 10 mg EMPA): 95.7 ± 33.7 ng/mL
concentration at 1.75 h ([5]; human, plasma, oral, 10 mg, Plasma concentrations, Fed (n = 58), high-fat diet, 1.75 h after 10 mg EMPA): 94.1 ± 28.1 ng/mL
concentration at 2 h ([5]; human, plasma, oral, 10 mg, Plasma concentrations, Fed (n = 58), high-fat diet, 2 h after 10 mg EMPA): 94.2 ± 26.3 ng/mL
concentration at 2.25 h ([5]; human, plasma, oral, 10 mg, Plasma concentrations, Fed (n = 58), high-fat diet, 2.25 h after 10 mg EMPA): 91.5 ± 22.6 ng/mL
concentration at 2.75 h ([5]; human, plasma, oral, 10 mg, Plasma concentrations, Fed (n = 58), high-fat diet, 2.75 h after 10 mg EMPA): 83.9 ± 16 ng/mL
concentration at 3 h ([5]; human, plasma, oral, 10 mg, Plasma concentrations, Fed (n = 58), high-fat diet, 3 h after 10 mg EMPA): 79.4 ± 15 ng/mL
concentration at 4 h ([5]; human, plasma, oral, 10 mg, Plasma concentrations, Fed (n = 58), high-fat diet, 4 h after 10 mg EMPA): 74.4 ± 11.1 ng/mL
concentration at 6 h ([5]; human, plasma, oral, 10 mg, Plasma concentrations, Fed (n = 58), high-fat diet, 6 h after 10 mg EMPA): 53.1 ± 8.8 ng/mL
concentration at 8 h ([5]; human, plasma, oral, 10 mg, Plasma concentrations, Fed (n = 58), high-fat diet, 8 h after 10 mg EMPA): 40.5 ± 7.6 ng/mL
concentration at 10 h ([5]; human, plasma, oral, 10 mg, Plasma concentrations, Fed (n = 58), high-fat diet, 10 h after 10 mg EMPA): 32.7 ± 6.7 ng/mL
concentration at 12 h ([5]; human, plasma, oral, 10 mg, Plasma concentrations, Fed (n = 58), high-fat diet, 12 h after 10 mg EMPA): 25.4 ± 4.9 ng/mL
concentration at 24 h ([5]; human, plasma, oral, 10 mg, Plasma concentrations, Fed (n = 58), high-fat diet, 24 h after 10 mg EMPA): 9.3 ± 1.8 ng/mL
concentration at 36 h ([5]; human, plasma, oral, 10 mg, Plasma concentrations, Fed (n = 58), high-fat diet, 36 h after 10 mg EMPA): 3.2 ± 1.2 ng/mL
concentration at 48 h ([5]; human, plasma, oral, 10 mg, Plasma concentrations, Fed (n = 58), high-fat diet, 48 h after 10 mg EMPA): 2.2 ± 0.8 ng/mL
Tmax [5, 8]: 1.31 h
Tmax [5, 9]: 1.67 h
half-life [5, 8]: 491 min
half-life [5, 9]: 500 min
ALD levels, after vs before EMPA ([6]; fasting group): no significant differences
PRC ([6]; fasting group, 2 h after EMPA, before EMPA (37.3 ± 25.8) pg/mL, p < 0.05): 52.2 ± 28.2 pg/mL
PRC ([6]; fasting group, 4 h after EMPA, before EMPA (37.3 ± 25.8) pg/mL, p < 0.05): 51.5 ± 23.7 pg/mL
Ang II ([6]; fasting group, before EMPA (81.9 ± 9.9) pg/mL, p < 0.05): 88.2 ± 10.3 pg/mL
ALD levels, after vs before EMPA ([6]; fed group): no significant differences
PRC ([6]; fed group, 4 h after EMPA, before EMPA (32.5 ± 22.4) pg/mL, p = ns): 30.4 ± 18.9 pg/mL
Ang II ([6]; fed group, before EMPA (91.6 ± 26.7) pg/mL, p < 0.05): 82.6 ± 23.3 pg/mL
